Test results taken from PubChem BioAssay AID504473 (NMMLSC, 2011).
Calls of active or inactive are those of the source.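 The calls were made as follows: active = GFP ratio to DMSO above 1.5 or below 0.66; inactive = the rest.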

What was measured:
Assay in all cases: TOR pathway GFP reporter clone modulation in yeast – S. cerevisiae, GFP-tagged clone panel, flow cytometry (AID 504473);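 also: median GFP fluorescence of the cells measured by high-throughput flow cytometry; test concentration not given here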
[1] = molecular target: General amino acid permease AGP1 (Saccharomyces cerevisiae S288c) (UniProt P25376); details: S. cerevisiae GFP-tagged strains, 3 h, YCL025C
YAL060W = details: S. cerevisiae GFP-tagged strains, 3 h
YAL061W = details: S. cerevisiae GFP-tagged strains, 3 h
YBL087C = details: S. cerevisiae GFP-tagged strains, 3 h
YBR072W = details: S. cerevisiae GFP-tagged strains, 3 h
YBR139W = details: S. cerevisiae GFP-tagged strains, 3 h
YBR208C = details: S. cerevisiae GFP-tagged strains, 3 h
YBR248C = details: S. cerevisiae GFP-tagged strains, 3 h
YCL064C = details: S. cerevisiae GFP-tagged strains, 3 h
YCR002C = details: S. cerevisiae GFP-tagged strains, 3 h
YCR005C = details: S. cerevisiae GFP-tagged strains, 3 h
YDL130W = details: S. cerevisiae GFP-tagged strains, 3 h
YDL204W = details: S. cerevisiae GFP-tagged strains, 3 h
YDL205C = details: S. cerevisiae GFP-tagged strains, 3 h
YDR070C = details: S. cerevisiae GFP-tagged strains, 3 h
YDR382W = details: S. cerevisiae GFP-tagged strains, 3 h
YDR399W = details: S. cerevisiae GFP-tagged strains, 3 h
YDR453C = details: S. cerevisiae GFP-tagged strains, 3 h
YEL007W = details: S. cerevisiae GFP-tagged strains, 3 h
YEL060C = details: S. cerevisiae GFP-tagged strains, 3 h
YEL063C = details: S. cerevisiae GFP-tagged strains, 3 h
YEL071W = details: S. cerevisiae GFP-tagged strains, 3 h
YER081W = details: S. cerevisiae GFP-tagged strains, 3 h
YER117W = details: S. cerevisiae GFP-tagged strains, 3 h
YER151C = details: S. cerevisiae GFP-tagged strains, 3 h
YER156C = details: S. cerevisiae GFP-tagged strains, 3 h
YFR031C-A = details: S. cerevisiae GFP-tagged strains, 3 h
YFR053C = details: S. cerevisiae GFP-tagged strains, 3 h
YGL036W = details: S. cerevisiae GFP-tagged strains, 3 h
YGL062W = details: S. cerevisiae GFP-tagged strains, 3 h
YGL135W = details: S. cerevisiae GFP-tagged strains, 3 h
YGL147C = details: S. cerevisiae GFP-tagged strains, 3 h
YGR019W = details: S. cerevisiae GFP-tagged strains, 3 h
YGR034W = details: S. cerevisiae GFP-tagged strains, 3 h
YGR088W = details: S. cerevisiae GFP-tagged strains, 3 h
YGR121C = details: S. cerevisiae GFP-tagged strains, 3 h
YHL021C = details: S. cerevisiae GFP-tagged strains, 3 h
YHR018C = details: S. cerevisiae GFP-tagged strains, 3 h
YHR087W = details: S. cerevisiae GFP-tagged strains, 3 h
YHR141C = details: S. cerevisiae GFP-tagged strains, 3 h
YHR144C = details: S. cerevisiae GFP-tagged strains, 3 h
YHR203C = details: S. cerevisiae GFP-tagged strains, 3 h
YIL043C = details: S. cerevisiae GFP-tagged strains, 3 h
YIL051C = details: S. cerevisiae GFP-tagged strains, 3 h
YIL052C = details: S. cerevisiae GFP-tagged strains, 3 h
YIL066C = details: S. cerevisiae GFP-tagged strains, 3 h
YIL069C = details: S. cerevisiae GFP-tagged strains, 3 h
YJL056C = details: S. cerevisiae GFP-tagged strains, 3 h

Chain of General amino acid permease AGP1 (Saccharomyces cerevisiae S288c) (P25376 whole entry, looked up): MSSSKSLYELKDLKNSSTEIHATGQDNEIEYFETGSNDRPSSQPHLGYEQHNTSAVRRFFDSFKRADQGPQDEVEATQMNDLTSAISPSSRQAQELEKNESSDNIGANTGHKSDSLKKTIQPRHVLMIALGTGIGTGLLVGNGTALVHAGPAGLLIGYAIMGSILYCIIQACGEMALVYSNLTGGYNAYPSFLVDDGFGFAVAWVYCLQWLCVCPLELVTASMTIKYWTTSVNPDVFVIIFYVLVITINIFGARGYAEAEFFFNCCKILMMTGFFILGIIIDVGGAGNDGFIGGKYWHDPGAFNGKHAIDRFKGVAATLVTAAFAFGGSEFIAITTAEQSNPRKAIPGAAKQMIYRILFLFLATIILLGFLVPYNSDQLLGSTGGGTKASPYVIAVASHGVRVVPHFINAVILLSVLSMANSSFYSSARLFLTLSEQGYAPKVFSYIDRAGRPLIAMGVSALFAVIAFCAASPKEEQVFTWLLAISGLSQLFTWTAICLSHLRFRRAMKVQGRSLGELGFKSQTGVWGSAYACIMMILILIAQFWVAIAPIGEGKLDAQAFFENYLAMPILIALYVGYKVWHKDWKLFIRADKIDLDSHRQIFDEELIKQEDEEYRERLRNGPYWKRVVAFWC

## CO[C@H]1C[C@@H]2CC[C@@H](C)[C@@](O)(O2)C(=O)C(=O)N2CCCC[C@H]2C(=O)O[C@H]([C@H](C)C[C@@H]2CC[C@@H](O)[C@H](OC)C2)CC(=O)[C@H](C)/C=C(\C)[C@@H](O)[C@@H](OC)C(=O)[C@H](C)C[C@H](C)/C=C/C=C/C=C/1C
[1]
  GFP ratio to DMSO: 2.27
YAL060W
  GFP ratio to DMSO: 3.23
YAL061W
  GFP ratio to DMSO: 2.14
YBL087C
  GFP ratio to DMSO: 0.33
YBR072W
  GFP ratio to DMSO: 4.94
YBR139W
  GFP ratio to DMSO: 1.61
YBR208C
  GFP ratio to DMSO: 3.04
YBR248C
  GFP ratio to DMSO: 1.11 (inactive)
YCL064C
  GFP ratio to DMSO: 1.28 (inactive)
YCR002C
  GFP ratio to DMSO: 0.98 (inactive)
YCR005C
  GFP ratio to DMSO: 4.59
YDL130W
  GFP ratio to DMSO: 0.717 (inactive)
YDL204W
  GFP ratio to DMSO: 1.4 (inactive)
YDL205C
  GFP ratio to DMSO: 0.898 (inactive)
YDR070C
  GFP ratio to DMSO: 4.12
YDR382W
  GFP ratio to DMSO: 0.783 (inactive)
YDR399W
  GFP ratio to DMSO: 0.946 (inactive)
YDR453C
  GFP ratio to DMSO: 2.58
YEL007W
  GFP ratio to DMSO: 1.05 (inactive)
YEL060C
  GFP ratio to DMSO: 2.55
YEL063C
  GFP ratio to DMSO: 1.7
YEL071W
  GFP ratio to DMSO: 2.11
YER081W
  GFP ratio to DMSO: 1.08 (inactive)
YER117W
  GFP ratio to DMSO: 0.304
YER151C
  GFP ratio to DMSO: 1.03 (inactive)
YER156C
  GFP ratio to DMSO: 1.05 (inactive)
YFR031C-A
  GFP ratio to DMSO: 0.481
YFR053C
  GFP ratio to DMSO: 1.66
YGL036W
  GFP ratio to DMSO: 0.919 (inactive)
YGL062W
  GFP ratio to DMSO: 2.27
YGL135W
  GFP ratio to DMSO: 0.682 (inactive)
YGL147C
  GFP ratio to DMSO: 0.682 (inactive)
YGR019W
  GFP ratio to DMSO: 1.93
YGR034W
  GFP ratio to DMSO: 0.689 (inactive)
YGR088W
  GFP ratio to DMSO: 2.06
YGR121C
  GFP ratio to DMSO: 1.72
YHL021C
  GFP ratio to DMSO: 2.52
YHR018C
  GFP ratio to DMSO: 1.54
YHR087W
  GFP ratio to DMSO: 2.24
YHR141C
  GFP ratio to DMSO: 0.777 (inactive)
YHR144C
  GFP ratio to DMSO: 0.869 (inactive)
YHR203C
  GFP ratio to DMSO: 0.685 (inactive)
YIL043C
  GFP ratio to DMSO: 0.996 (inactive)
YIL051C
  GFP ratio to DMSO: 1.4 (inactive)
YIL052C
  GFP ratio to DMSO: 0.619
YIL066C
  GFP ratio to DMSO: 1.17 (inactive)
YIL069C
  GFP ratio to DMSO: 0.171
YJL056C
  GFP ratio to DMSO: 0.954 (inactive)
